Experimental data as given in patent publication EP0482657A2, “Cephem compounds, their production and use” (Takeda Chemical Industries, Ltd., priority 1990, dated 1992).

Assays:
[1] = system: Staphylococcus aureus 308A-1; test: Therapeutic effects against intraperitoneal infections in mice (oral administration); assay type: in vivo; conditions: 308A1, po, 120 h; Slc:ICR mice infected intraperitoneally with Staphylococcus aureus 308A-1; once orally immediately after infection; survival over five days; Reed and Münch; in terms of potency of the said cephem carboxylic acid
Experimental: (§1) Infections in Mice. Test animals: Slc : ICR, 4-week old male mice (body weight 20 to 22 g) were employed. Induction of experimental infections (infected mice):
(§2) Staphylococcus aureus 308A-1 or Escherichia coli 0-111 was cultured in Brain Heart Infusion broth (manufactured by Difco Co.) at 37°C for 20 hours. Each of the organisms was suspended in a 8% mucin solution (manufactured by Difco in) at a concentration of 2 x 10⁸ Colony Forming Units (hereinafter abbreviated as "CFU")/ml and 2 x 10⁵ CFU/ml, respectively, and 0.5 ml of each suspension was administered intraperitoneally. Administration of Test compounds: 25 mg of each test compound was dissolved in 0.5 ml of DMSO, and each solution was diluted in distilled water to prepare two fold dilutions of each compound in the range of 2.5 mg/ml - 0.156 mg/ml in the case of infection with Staphylococcus aureus and in the range of 0.156 mg/ml - 0.01 mg/ml in the case of infection with Escherichia coli. A volume of 0.2 ml of each dilution was once administered orally using a tube into the stomach of five mice each in each group immediately after the infection. […] The ED₅₀ value of each compound was that in terms of the potency of the said cephem carboxylic acid.

Escherichia coli O-111 = test: as above; assay type: in vivo; conditions: O111, po, 120 h; Slc:ICR mice infected intraperitoneally with Escherichia coli O-111; once orally immediately after infection; survival over five days; Reed and Münch; in terms of potency of the said cephem carboxylic acid
Experimental: as §1, §2

How did the ED50 [1] turn out when `Cc1nnc(SCC2=C(C(=O)OC(C)OC(=O)OC(C)C)N3C(=O)[C@@H](NC(=O)/C(=N\O)c4csc(N)n4)[C@H]3SC2)s1.Cl` (stereo partly drawn) [Ex.2, 1-(Isopropoxycarbonyloxy)ethyl 7β-[2-(2-aminothiazol-4-yl)-(Z)-2-hydroxyiminoacetamido]-3-[(2-methyl-1,3,4-thiadiazol-5-yl)thiomethyl]-3-cephem-4-carboxylate hydrochloride] was run?
Its ED50 is 5.57 mg/kg.

What about the ED50 (Escherichia coli O-111) of the same compound?
Its ED50 is 0.13 mg/kg.

How did the ED50 [1] turn out when `Cc1nnc(SCC2=C(C(=O)O)N3C(=O)[C@@H](NC(=O)/C(=N\O)c4csc(N)n4)[C@H]3SC2)s1` [GB-A-1587941 Ex.16, 7β-[2-(2-aminothiazol-4-yl)-(Z)-2-hydroxyiminoacetamido]-3-[(2-methyl-1,3,4-thiadiazol-5-yl)thiomethyl]-3-cephem-4-carboxylic acid, reference compound] was run?
The ED50 was > 25 mg/kg.

And the ED50 (Escherichia coli O-111)?
The ED50 was 1.25 mg/kg.

For `Cc1nnc(SCC2=C(C(=O)OC(C)OC(=O)OC(C)C)N3C(=O)[C@@H](NC(=O)/C(=N\O)c4csc(N)n4)[C@H]3SC2)s1` (single isomer, unassigned) [Ex.1, 1-(Isopropoxycarbonyloxy)ethyl 7β-[2-(2-aminothiazol-4-yl)-(Z)-2-hydroxyiminoacetamido]-3-[(2-methyl-1,3,4-thiazol-5-yl)thiomethyl]-3-cephem-4-carboxylate], which ED50 [1] is on record?
The ED50 was 7.02 mg/kg.

And the ED50 (Escherichia coli O-111)?
Its ED50 is 0.141 mg/kg.

What does the source list for `Cc1nnc(SCC2=C(C(=O)OCOC(=O)C(C)(C)C)N3C(=O)[C@@H](NC(=O)/C(=N\O)c4csc(N)n4)[C@H]3SC2)s1` [JP-A-9698/1985 PR Ex.3, pivaloyloxymethyl ester of the said cephem carboxylic acid, reference compound]?
ED50 [1]: 22.3 mg/kg; ED50 (Escherichia coli O-111): 0.279 mg/kg

With `Cc1nnc(SCC2=C(C(=O)OC(C)OC(=O)OC3CCC3)N3C(=O)[C@@H](NC(=O)/C(=N\O)c4csc(N)n4)[C@H]3SC2)s1.Cl` (stereo partly drawn) [Ex.5, 1-(Cyclobutyloxycarbonyloxy)ethyl 7β-[2-(2-aminothiazol-4-yl)-(Z)-2-hydroxyiminoacetamido]-3-[(2-methyl-1,3,4-thiadiazol-5-yl)thiomethyl]-3-cephem-4-carboxylate hydrochloride] as the compound, how does the ED50 [1] read?
Its ED50 is 14 mg/kg.

With `CCC(CC)OC(=O)OC(C)OC(=O)C1=C(CSc2nnc(C)s2)CS[C@@H]2[C@H](NC(=O)/C(=N\O)c3csc(N)n3)C(=O)N12.Cl` (stereo partly drawn) [Ex.6, 1-(1-Ethylpropoxycarbonyloxy)ethyl 7β-[2-(2-aminothiazol-4-yl)-(Z)-2-hydroxyiminoacetamido]-3-[(2-methyl-1,3,4-thiadiazol-5-yl)thiomethyl]-3-cephem-4-carboxylate hydrochloride] as the compound, how does the ED50 [1] read?
The ED50 was 12.5 mg/kg.

`CCOC(=O)OC(C)OC(=O)C1=C(CSc2nnc(C)s2)CS[C@@H]2[C@H](NC(=O)/C(=N\O)c3csc(N)n3)C(=O)N12` (some centres unmarked) [JP-A-9698/1985 PR Ex.4, 1-(ethoxycarbonyloxy)ethyl ester of the said cephem carboxylic acid, reference compound] was tested. Which ED50 [1] did it give?
Its ED50 is > 25 mg/kg.

And the ED50 (Escherichia coli O-111)?
Its ED50 is 0.349 mg/kg.

What does the source list for `Cc1nnc(SCC2=C(C(=O)OC(C)OC(=O)OC3CCCC3)N3C(=O)[C@@H](NC(=O)/C(=N\O)c4csc(N)n4)[C@H]3SC2)s1` (stereo partly drawn) [Ex.3, 1-(Cyclopentyloxycarbonyloxy)ethyl 7β-[2-(2-aminothiazol-4-yl)-(Z)-2-hydroxyiminoacetamido]-3-[(2-methyl-1,3,4-thiadiazol-5-yl)thiomethyl]-3-cephem-4-carboxylate]?
ED50 [1]: 8.84 mg/kg; ED50 (Escherichia coli O-111): 0.13 mg/kg
